Laboratory results: the supplement of paper PMC10307832

How the values were obtained:
Experiment in all cases: relative viability (nuclei count vs DMSO), 5 days (fraction); higher = more cells survive
[1] = system: EBC-1
Outline: (§1)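 Values are medians from duplicate plates. Each reflects relative viability, defined as the nuclei count of treated wells over that of vehicle wells. Lung cancer cell lines in 1536-well plates were pin-tool dosed one day after seeding with one drug alone or with a fixed anchor-drug dose plus five library-drug doses (not always all listed) in √10 steps, then fixed, stained and imaged at 4× after 5 days.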

[2] = system: NCI-H1703
Outline: as §1

[3] = system: Calu-6
Outline: as §1

[4] = system: A549
Outline: as §1

[5] = system: NCI-H1299
Outline: as §1

[6] = system: NCI-H1563
Outline: as §1

[7] = system: IA-LM
Outline: as §1

Cc1cnc(-c2cnc(NCCNc3ccc(C#N)cn3)nc2-c2ccc(Cl)cc2Cl)[nH]1 + C[C@]1(O)C[C@@H](c2nc(-c3ccc4ccc(-c5ccccc5)nc4c3)c3c(N)nccn32)C1 [Linsitinib] (partner 1 µM)
relative viability ([1]; first compound 0.08 µM): 0.913
relative viability ([1]; first compound 0.253 µM): 0.713
relative viability ([1]; first compound 0.8 µM): 0.859
relative viability ([1]; first compound 2.53 µM): 0.819
relative viability ([2]; first compound 0.08 µM): 0.986
relative viability ([2]; first compound 0.253 µM): 0.631
relative viability ([2]; first compound 0.8 µM): 0.884
relative viability ([2]; first compound 2.53 µM): 1.21
relative viability ([3]; first compound 0.08 µM): 1.01
relative viability ([3]; first compound 0.253 µM): 0.888
relative viability ([3]; first compound 2.53 µM): 0.971
relative viability ([4]; first compound 0.08 µM): 0.719
relative viability ([4]; first compound 0.253 µM): 0.477
relative viability ([4]; first compound 0.8 µM): 0.468
relative viability ([4]; first compound 2.53 µM): 0.548
relative viability ([5]; first compound 0.08 µM): 0.882
relative viability ([5]; first compound 0.253 µM): 0.967
relative viability ([5]; first compound 0.8 µM): 0.503
relative viability ([5]; first compound 2.53 µM): 0.861
relative viability ([6]; first compound 0.08 µM): 1.33
relative viability ([6]; first compound 0.253 µM): 1.2
relative viability ([6]; first compound 0.8 µM): 1.22
relative viability ([6]; first compound 2.53 µM): 1.1
relative viability ([7]; first compound 0.08 µM): 0.604
relative viability ([7]; first compound 0.253 µM): 0.257
relative viability ([7]; first compound 0.8 µM): 0.744
relative viability ([7]; first compound 2.53 µM): 0.542

O=c1[nH]c2ccccc2n1C1CCN(CCCC(c2ccc(F)cc2)c2ccc(F)cc2)CC1 [Pimozide] + CS(=O)(=O)N1CCN(Cc2cc3nc(-c4cccc5[nH]ncc45)nc(N4CCOCC4)c3s2)CC1 [Pictilisib] (partner 1 µM)
relative viability ([1]; first compound 0.08 µM): 0.393
relative viability ([1]; first compound 0.253 µM): 0.37
relative viability ([1]; first compound 0.8 µM): 0.364
relative viability ([1]; first compound 2.53 µM): 0.269
relative viability ([1]; first compound 8 µM): 0.27
relative viability ([2]; first compound 0.08 µM): 0.24
relative viability ([2]; first compound 0.253 µM): 0.273
relative viability ([2]; first compound 0.8 µM): 0.296
relative viability ([2]; first compound 2.53 µM): 0.264
relative viability ([2]; first compound 8 µM): 0.246
relative viability ([3]; first compound 0.08 µM): 0.952
relative viability ([3]; first compound 0.253 µM): 0.984
relative viability ([3]; first compound 0.8 µM): 0.808
relative viability ([3]; first compound 2.53 µM): 0.84
relative viability ([3]; first compound 8 µM): 0.872
relative viability ([4]; first compound 0.08 µM): 0.524
relative viability ([4]; first compound 0.253 µM): 0.472
relative viability ([4]; first compound 0.8 µM): 0.494
relative viability ([4]; first compound 2.53 µM): 0.385
relative viability ([4]; first compound 8 µM): 0.448
relative viability ([5]; first compound 0.08 µM): 0.788
relative viability ([5]; first compound 0.253 µM): 0.729
relative viability ([5]; first compound 0.8 µM): 0.666
relative viability ([5]; first compound 2.53 µM): 0.745
relative viability ([5]; first compound 8 µM): 0.703
relative viability ([6]; first compound 0.08 µM): 0.654
relative viability ([6]; first compound 0.253 µM): 0.646
relative viability ([6]; first compound 0.8 µM): 0.667
relative viability ([6]; first compound 2.53 µM): 0.642
relative viability ([6]; first compound 8 µM): 0.637
relative viability ([7]; first compound 0.253 µM): 0.28
relative viability ([7]; first compound 0.8 µM): 0.288
relative viability ([7]; first compound 2.53 µM): 0.404
relative viability ([7]; first compound 8 µM): 0.438

Cc1cnc(-c2cnc(NCCNc3ccc(C#N)cn3)nc2-c2ccc(Cl)cc2Cl)[nH]1 + Cc1nc(NC(=O)N2CCC[C@H]2C(N)=O)sc1-c1ccnc(C(C)(C)C(F)(F)F)c1 [Alpelisib] (partner 2 µM)
relative viability ([1]; first compound 0.08 µM): 0.796
relative viability ([1]; first compound 0.253 µM): 0.782
relative viability ([1]; first compound 0.8 µM): 0.78
relative viability ([1]; first compound 2.53 µM): 0.812
relative viability ([2]; first compound 0.08 µM): 0.329
relative viability ([2]; first compound 0.253 µM): 0.312
relative viability ([2]; first compound 0.8 µM): 0.37
relative viability ([2]; first compound 2.53 µM): 0.535
relative viability ([3]; first compound 0.08 µM): 0.946
relative viability ([3]; first compound 0.253 µM): 0.924
relative viability ([3]; first compound 0.8 µM): 0.934
relative viability ([3]; first compound 2.53 µM): 0.822
relative viability ([4]; first compound 0.08 µM): 0.853
relative viability ([4]; first compound 0.253 µM): 0.753
relative viability ([4]; first compound 0.8 µM): 0.818
relative viability ([4]; first compound 2.53 µM): 0.94
relative viability ([5]; first compound 0.08 µM): 1.01
relative viability ([5]; first compound 0.253 µM): 0.992
relative viability ([5]; first compound 0.8 µM): 1.1
relative viability ([5]; first compound 2.53 µM): 0.996
relative viability ([6]; first compound 0.08 µM): 1.02
relative viability ([6]; first compound 0.253 µM): 0.9
relative viability ([6]; first compound 0.8 µM): 0.946
relative viability ([6]; first compound 2.53 µM): 0.913
relative viability ([7]; first compound 0.08 µM): 0.837
relative viability ([7]; first compound 0.253 µM): 0.77
relative viability ([7]; first compound 0.8 µM): 0.86
relative viability ([7]; first compound 2.53 µM): 0.826

O=C(O)CCCCC(CCSCc1ccccc1)SCc1ccccc1 (centres undefined) [CPI-613] + Cc1nc(NC(=O)N2CCC[C@H]2C(N)=O)sc1-c1ccnc(C(C)(C)C(F)(F)F)c1 [Alpelisib] (partner 2 µM)
relative viability ([1]; first compound 5 µM): 0.823
relative viability ([1]; first compound 15.81 µM): 0.651
relative viability ([1]; first compound 50 µM): 0.678
relative viability ([1]; first compound 158.11 µM): 0.199
relative viability ([1]; first compound 500 µM): 0.0384
relative viability ([2]; first compound 5 µM): 0.381
relative viability ([2]; first compound 15.81 µM): 0.484
relative viability ([2]; first compound 50 µM): 0.275
relative viability ([2]; first compound 158.11 µM): 0.208
relative viability ([2]; first compound 500 µM): 0.0611
relative viability ([3]; first compound 5 µM): 0.997
relative viability ([3]; first compound 15.81 µM): 0.876
relative viability ([3]; first compound 50 µM): 0.891
relative viability ([3]; first compound 158.11 µM): 0.174
relative viability ([3]; first compound 500 µM): 0.0521
relative viability ([4]; first compound 5 µM): 0.859
relative viability ([4]; first compound 15.81 µM): 0.675
relative viability ([4]; first compound 50 µM): 0.69
relative viability ([4]; first compound 158.11 µM): 0.384
relative viability ([4]; first compound 500 µM): 0.0243
relative viability ([5]; first compound 5 µM): 1.02
relative viability ([5]; first compound 15.81 µM): 1.04
relative viability ([5]; first compound 50 µM): 1.04
relative viability ([5]; first compound 158.11 µM): 1.09
relative viability ([5]; first compound 500 µM): 1.08
relative viability ([6]; first compound 5 µM): 0.958
relative viability ([6]; first compound 15.81 µM): 0.938
relative viability ([6]; first compound 50 µM): 0.939
relative viability ([6]; first compound 158.11 µM): 0.796
relative viability ([6]; first compound 500 µM): 0.113
relative viability ([7]; first compound 5 µM): 0.614
relative viability ([7]; first compound 15.81 µM): 0.679
relative viability ([7]; first compound 50 µM): 0.644
relative viability ([7]; first compound 158.11 µM): 0.399
relative viability ([7]; first compound 500 µM): 0.0122
